Experimental data taken from patent publication US8822460B2, “Fused cyclopentyl antagonists of CCR2” (Janssen Pharmaceutica, NV, priority 2012, dated 2014).
pEC50, pIC50: −log10 of the molar value. Values joined by “and” are separate entries in the source; they are usually repeats but may differ in a detail not shown here. Identical values can stand only once. Counter-ions that a name gives are not always drawn. Blank lines part the entries; values can stand above or below the molecule they belong to.

Experiments:
Solution solubility = conditions: thermodynamic from solid
[1] = Moisture sorption/desorption analysis; type: physicochemical; conditions: for total hygroscopic weight increase (uptake): up to 90% RH
Experimental: The crystalline phosphate, sulfate and maleate salts of the compound of formula (I-S) were additional tested in DSC, TGA and moisture sorption/desorption. […] The moisture sorption analysis was performed using Hiden Isochema system Model IGAsorp. The sample (˜5 mg) was run in a stainless-steel mesh crucible. […] The moisture profile consisted of 2 cycles of vapor adsorption/desorption.

CCR2 = CCR2 (Homo sapiens (Human), UniProt P41597); test: MCP-1 Receptor Binding Assay in THP-1 Cells; conditions: stated as 'believed to have', approximate ('about')
Sequence of CCR2 (P41597 whole entry): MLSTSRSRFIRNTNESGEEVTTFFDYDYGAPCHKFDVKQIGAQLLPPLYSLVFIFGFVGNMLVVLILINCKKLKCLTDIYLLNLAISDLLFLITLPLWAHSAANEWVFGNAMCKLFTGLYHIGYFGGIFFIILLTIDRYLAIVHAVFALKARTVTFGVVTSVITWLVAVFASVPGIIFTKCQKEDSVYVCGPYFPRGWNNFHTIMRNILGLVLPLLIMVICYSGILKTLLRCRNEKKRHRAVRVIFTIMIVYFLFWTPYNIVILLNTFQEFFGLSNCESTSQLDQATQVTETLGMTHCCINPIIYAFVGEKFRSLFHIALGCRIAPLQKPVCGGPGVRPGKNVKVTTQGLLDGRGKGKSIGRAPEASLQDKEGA
Experimental: Human monocytic cell line THP-1 cells were obtained from American Type Culture Collection (Manassas, Va., USA). […] The cell density was maintained […].
1 μM cold MCP-1 was used for nonspecific binding.

[2] = test system: high-fat diet induced obese mice; test: High-Fat Diet Induced Obesity and Insulin Resistance in Mice
hCCR2KI mice = test: animal or person; type: in vivo, mouse

SMILES: CO[C@@H]1COCC[C@@H]1N[C@@H]1C[C@H]2OCC[C@@]2(C(=O)N2CCc3ncc(C(F)(F)F)cc3C2)C1.O=C(O)CCC(=O)O [((3aS,5S,6aR)-5-(((3S,4S)-3-methoxytetrahydro-2H-pyran-4-yl)amino)hexahydro-2H-cyclopenta[b]furan-3a-yl)(3-(trifluoromethyl)-7,8-dihydro-1,6-naphthyridin-6(5H)-yl)methanone]
solubility (Solution solubility; 0.1N NaOH, aqueous buffer): > 100 mg/mL | solubility (Solution solubility; 0.5% methocel, aqueous with cosolvent or surfactant or cyclodextrin): > 100 mg/mL | solubility (Solution solubility; 20% HpbCD, aqueous with cosolvent or surfactant or cyclodextrin): > 100 mg/mL | solubility (Solution solubility; borate buffer, pH 8, aqueous buffer): > 100 mg/mL | solubility (Solution solubility; borate buffer, pH 10, aqueous buffer): > 100 mg/mL | solubility (Solution solubility; citrate buffer, pH 2, aqueous buffer): > 100 mg/mL | solubility (Solution solubility; citrate buffer, pH 4, aqueous buffer): > 100 mg/mL | solubility (Solution solubility; citrate buffer, pH 6, aqueous buffer): > 100 mg/mL | solubility (Solution solubility; simulated gastric fluid): > 100 mg/mL | solubility (Solution solubility; simulated intestinal fluid, fassgf or other biorelevant): > 100 mg/mL | solubility (Solution solubility; water): > 50 mg/mL | moisture retained at the end of the desorption phase ([1]; multiple sorption/desorption cycles, 25° C.): about 2.7% | hygroscopic weight increase ([1]; up to 70% RH): 3.8% | total hygroscopic weight increase (uptake) [1]: 70%

SMILES: COC1COCCC1N[C@@H]1C[C@H]2OC(CC(C)C)C[C@@]2(C(=O)N2CCc3ncc(C(F)(F)F)cc3C2)C1 (stereo partly drawn) [Example 14, ((3aS,5S,6aR)-2-isobutyl-5-((3-methoxytetrahydro-2H-pyran-4-yl)amino)hexahydro-2H-cyclopenta[b]furan-3a-yl)(3-(trifluoromethyl)-7,8-dihydro-1,6-naphthyridin-6(5H)-yl)methanone]
pIC50 (CCR2): 7.00 to 7.30

SMILES: COC1COCCC1N[C@@H]1C[C@H]2OC(C3CCCCC3)C[C@@]2(C(=O)N2CCc3ncc(C(F)(F)F)cc3C2)C1 (stereo partly drawn) [Example 15, ((3aS,5S,6aR)-2-cyclohexyl-5-((3-methoxytetrahydro-2H-pyran-4-yl)amino)hexahydro-2H-cyclopenta[b]furan-3a-yl)(3-(trifluoromethyl)-7,8-dihydro-1,6-naphthyridin-6(5H)-yl)methanone]
pIC50 (CCR2): > 7.30

SMILES: COC1COCCC1N[C@@H]1C[C@H]2OC(c3nccn3C)C[C@@]2(C(=O)N2CCc3ncc(C(F)(F)F)cc3C2)C1 (stereo partly drawn) [Example 18, ((3 aS,5S,6aR)-5-((3-methoxytetrahydro-2H-pyran-4-yl)amino)-2-(1-methyl-1H-imidazol-2-yl)hexahydro-2H-cyclopenta[b]furan-3a-yl)(3-(trifluoromethyl)-7,8-dihydro-1,6-naphthyridin-6(5H)-yl)methanone]
pIC50 (CCR2): < 6.70

SMILES: CO[C@@H]1COCC[C@@H]1N[C@@H]1C[C@H]2OCC[C@@]2(C(=O)N2CCc3ncc(C(F)(F)F)cc3C2)C1.O=C(O)CCC(=O)O [Example 30, ((3aS,5S,6aR)-5-((3S,4S)-3-methoxytetrahydro-2H-pyran-4-ylamino)hexahydro-2H-cyclopenta[b]furan-3a-yl)(3-(trifluoromethyl)-7,8-dihydro-1,6-naphthyridin-6(5H)-yl)methanone succinate]
reduction of high fat-diet induced body weight ([2]; 1 mg/kg p.o. bid, after 32-days treatment (p>0.05)): 4.94% | reduction of high fat-diet induced body weight ([2]; 3 mg/kg p.o. bid, after 32-days treatment (p<0.01)): 10.94% | reduction of high fat-diet induced body weight ([2]; 10 mg/kg p.o. bid, after 32-days treatment (p<0.01)): 15.7% | pEC50 (hCCR2KI mice; Mus musculus, 0.5 h, read-out: cmax EC50 in plasma): 7.01 | inhibition of thioglycollate induced cellular infiltrate (hCCR2KI mice; mouse, in vivo, succinate): 51% and 67% and 95%

SMILES: COCCOCCOCCOCCCN([C@@H]1C[C@H]2OCC[C@@]2(C(=O)N2CCc3ncc(C(F)(F)F)cc3C2)C1)[C@H]1CCOC[C@H]1OC [Example 42, ((3aS,5S,6aR)-5-(((3S,4S)-3-methoxytetrahydro-2H-pyran-4-yl)(2,5,8,11-tetraoxatetradecan-14-yl)amino)hexahydro-2H-cyclopenta[b]furan-3a-yl)(3-(trifluoromethyl)-7,8-dihydro-1,6-naphthyridin-6(5H)-yl)methanone]
pIC50 (CCR2): < 6.70

SMILES: CO[C@@H]1COCC[C@@H]1N[C@@H]1C[C@H]2OCC[C@@]2(C(=O)N2CCc3ncc(C(F)(F)F)cc3C2)C1 [maleate salt, ((3aS,5S,6aR)-5-(((3S,4S)-3-methoxytetrahydro-2H-pyran-4-yl)amino)hexahydro-2H-cyclopenta[b]furan-3a-yl)(3-(trifluoromethyl)-7,8-dihydro-1,6-naphthyridin-6(5H)-yl)methanone]
hygroscopic weight increase ([1]; up to 70% RH): 18.3% | total hygroscopic weight increase (uptake) [1]: 79.9%

SMILES: CO[C@@H]1COCC[C@@H]1N[C@@H]1C[C@H]2OCC[C@@]2(C(=O)N2CCc3ncc(C(F)(F)F)cc3C2)C1 [phosphate salt, ((3aS,5S,6aR)-5-(((3S,4S)-3-methoxytetrahydro-2H-pyran-4-yl)amino)hexahydro-2H-cyclopenta[b]furan-3a-yl)(3-(trifluoromethyl)-7,8-dihydro-1,6-naphthyridin-6(5H)-yl)methanone]
hygroscopic weight increase ([1]; up to 60% RH): 3.3% | total hygroscopic weight increase (uptake) [1]: 69.4%

SMILES: CO[C@@H]1COCC[C@@H]1N[C@@H]1C[C@H]2OCC[C@@]2(C(=O)N2CCc3ncc(C(F)(F)F)cc3C2)C1 [sulfate salt, ((3aS,5S,6aR)-5-(((3S,4S)-3-methoxytetrahydro-2H-pyran-4-yl)amino)hexahydro-2H-cyclopenta[b]furan-3a-yl)(3-(trifluoromethyl)-7,8-dihydro-1,6-naphthyridin-6(5H)-yl)methanone]
hygroscopic weight increase ([1]; up to 60% RH): 1.6% | total hygroscopic weight increase (uptake) [1]: 26.5%

Second part, the molecule after the results:

pIC50 (CCR2): 6.70 to 7.00
SMILES: COC1COCCC1N[C@@H]1C[C@H]2OC(c3ccnn3C)C[C@@]2(C(=O)N2CCc3ncc(C(F)(F)F)cc3C2)C1 (stereo partly drawn) [Example 17, ((3aS,5S,6aR)-5-((3-methoxytetrahydro-2H-pyran-4-yl)amino)-2-(1-methyl-1H-pyrazol-5-yl)hexahydro-2H-cyclopenta[b]furan-3a-yl)(3-(trifluoromethyl)-7,8-dihydro-1,6-naphthyridin-6(5H)-yl)methanone]

pIC50 (CCR2): < 6.70
SMILES: CO[C@@H]1COCC[C@@H]1N[C@@H]1C[C@H]2OCC[C@@]2(C(=O)N2CCN(c3cccc(C(F)(F)F)n3)CC2)C1 [Example 24, ((3 aS,5S,6aR)-5-(((3S,4S)-3-methoxytetrahydro-2H-pyran-4-yl)amino)hexahydro-2H-cyclopenta[b]furan-3a-yl)(4-(6-(trifluoromethyl)pyridin-2-yl)piperazin-1-yl)methanone]

pIC50 (CCR2): < 6.70
SMILES: CO[C@@H]1COCC[C@@H]1N[C@@H]1C[C@H]2OCC[C@@]2(C(=O)N2CCN(c3ccnc(C(F)(F)F)n3)CC2)C1 [Example 28, ((3aS,5S,6aR)-5-(((3S,4S)-3-methoxytetrahydro-2H-pyran-4-yl)amino)hexahydro-2H-cyclopenta[b]furan-3a-yl)(4-(2-(trifluoromethyl)pyrimidin-4-yl)piperazin-1-yl)methanone]

pIC50 (CCR2): > 7.30
SMILES: COc1cccc(C2CCN([C@@H]3C[C@H]4OCC[C@@]4(C(=O)N4CCc5ncc(C(F)(F)F)cc5C4)C3)CC2)c1 [Example 33, ((3aS,5S,6aR)-5-(4-(3-methoxyphenyl)piperidin-1-yl)hexahydro-2H-cyclopenta[b]furan-3a-yl)(3-(trifluoromethyl)-7,8-dihydro-1,6-naphthyridin-6(5H)-yl)methanone]

pIC50 (CCR2): 6.70 to 7.00
SMILES: O=C(N1COc2ccc(C(F)(F)F)cc2C1)[C@@]12CCO[C@@H]1C[C@@H](N1CCC(c3ccccc3)CC1)C2 [Example 38, ((3aS,5S,6aR)-5-(4-phenylpiperidin-1-yl)hexahydro-2H-cyclopenta[b]furan-3a-yl)(6-(trifluoromethyl)-2H-benzo[e][1,3]oxazin-3(4H)-yl)methanone]

pIC50 (CCR2): > 7.30
SMILES: CN(C)C(=O)c1cccc(C2CCN([C@@H]3C[C@H]4OCC[C@@]4(C(=O)N4COc5ccc(C(F)(F)F)cc5C4)C3)CC2)c1 [Example 39, N,N-dimethyl-3-(1-((3aS,5S,6aR)-3a-(6-(trifluoromethyl)-3,4-dihydro-2H-benzo[e][1,3]oxazine-3-carbonyl)hexahydro-2H-cyclopenta[b]furan-5-yl)piperidin-4-yl)benzamide]

pIC50 (CCR2): < 6.70
SMILES: COCCN([C@@H]1C[C@H]2OCC[C@@]2(C(=O)N2CCc3ncc(C(F)(F)F)cc3C2)C1)[C@H]1CCOC[C@H]1OC [Example 41, ((3aS,5S,6aR)-5-((2-methoxyethyl)((3S,4S)-3-methoxytetrahydro-2H-pyran-4-yl)amino)hexahydro-2H-cyclopenta[b]furan-3a-yl)(3-(trifluoromethyl)-7,8-dihydro-1,6-naphthyridin-6(5H)-yl)methanone]
